From patent US9598440B2, “Inhibitors of IRAK4 activity” (MERCK SHARP & DOHME CORP., priority 2012, dated 2017)

Target: IRAK4 (Homo sapiens (Human), UniProt Q9NWZ3)
Test: Determination of IRAK4 kinase activity (IMAP fluorescence polarization, phosphorylation of fluorescent peptide substrate)
Assay type: biochemical
Settings: 0.5 nM GST tagged IRAK4, 100 nM peptide substrate RP7030, 100 μM ATP, 30 minutes at 25° C.
How it was run: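 GST-tagged IRAK4 (0.5 nM) phosphorylated 100 nM fluorescent peptide substrate with 100 µM ATP in Tris-HCl pH 7.2, 1 mM MgCl2, 1 mM DTT, 0.01% Tween 20 for 30 min at 25 °C. Phosphorylation read by IMAP nanoparticle binding as fluorescence polarization increase.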

Chain of IRAK4 (Q9NWZ3 whole entry): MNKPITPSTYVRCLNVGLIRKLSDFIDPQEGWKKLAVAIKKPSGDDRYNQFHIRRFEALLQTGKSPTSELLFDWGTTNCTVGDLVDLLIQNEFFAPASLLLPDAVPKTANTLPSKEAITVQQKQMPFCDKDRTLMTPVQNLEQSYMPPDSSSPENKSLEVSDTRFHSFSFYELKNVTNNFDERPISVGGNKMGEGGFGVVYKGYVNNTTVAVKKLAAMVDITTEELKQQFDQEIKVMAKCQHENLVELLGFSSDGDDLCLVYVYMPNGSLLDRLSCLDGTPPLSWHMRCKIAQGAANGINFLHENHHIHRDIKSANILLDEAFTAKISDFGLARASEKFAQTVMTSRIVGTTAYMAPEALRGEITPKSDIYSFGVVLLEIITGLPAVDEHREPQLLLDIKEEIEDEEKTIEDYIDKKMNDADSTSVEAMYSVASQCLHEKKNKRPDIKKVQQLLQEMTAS

IC50	Compound
890 nM	CC(C)(O)[C@H]1C[C@@H](Nc2cc(NC3CCC3)ncc2-c2nc3ccccc3s2)[C@H](O)[C@@H]1O [Example 161, (1R,2S,3R,5S)-3-((5-(benzo[d]thiazol-2-yl)-2-(cyclobutylamino)pyridin-4-yl)amino)-5-(2-hydroxypropan-2-yl)cyclopentane-1,2-diol]
270 nM	Cc1csc(-c2cnc(NC3CCC3)nc2N[C@@H]2C[C@H](C(C)(C)O)[C@@H](O)[C@H]2O)n1 [Example 134, (1R,2S,3R,5S)-3-((2-(cyclobutylamino)-5-(4-methylthiazol-2-yl)pyrimidin-4-yl)amino)-5-(2-hydroxypropan-2-yl)cyclopentane-1,2-diol]
3010 nM	OC[C@H]1C[C@@H](Nc2nc(NC3CCCCC3)ncc2-c2nc3ccccc3s2)[C@H](O)[C@@H]1O [Example 18, (1R,2S,3R,5R)-3-((5-(benzo[d]thiazol-2-yl)-2-(cyclohexylamino)pyrimidin-4-yl)amino)-5-(hydroxymethyl)cyclopentane-1,2-diol]
5030 nM	Cc1nc(NC2CC2)nc(N[C@@H]2C[C@H](CO)[C@@H](O)[C@H]2O)c1-c1nc2ccccc2s1 [Example 90, (1R,2S,3R,5R)-3-((5-(benzo[d]thiazol-2-yl)-2-(cyclopropylamino)-6-methylpyrimidin-4-yl)amino)-5-(hydroxymethyl)cyclopentane-1,2-diol]
5.8 nM	OC[C@H]1C[C@@H](Nc2nc(Nc3ccc(O)cc3)ncc2-c2nc3ccccc3s2)[C@H](O)[C@@H]1O [Example 2, (1R,2S,3R,5R)-3-((5-(benzo[d]thiazol-2-yl)-2-((4-hydroxyphenyl)amino)pyrimidin-4-yl)amino)-5-(hydroxymethyl)cyclopentane-1,2-diol]
1 nM	Cc1cc(Nc2ncc(-c3ccc4ccccc4n3)c(N[C@@H]3C[C@H](CO)[C@@H](O)[C@H]3O)n2)cc(C)n1 [Example 59, 6-(((1R,2S,3R,4R)-2,3-dihydroxy-4-(hydroxymethyl)cyclopentyl)amino)-2-((2,6-dimethylpyridin-4-yl)amino)-5-(quinolin-2-yl)pyrimidine]
126 nM	COc1cc(Nc2cc(N[C@@H]3C[C@H](C(C)(C)O)[C@@H](O)[C@H]3O)c(-c3nc4ccccc4s3)cn2)ccn1 [Example 160, (1R,2S,3R,5S)-3-((5-(benzo[d]thiazol-2-yl)-2-((2-methoxypyridin-4-yl)amino)pyridin-4-yl)amino)-5-(2-hydroxypropan-2-yl)cyclopentane-1,2-diol]
370 nM	COc1cc(Nc2cc(N[C@@H]3C[C@H](CO)[C@@H](O)[C@H]3O)c(-c3nc4ccccc4s3)cn2)ccn1 [Example 155, (1R,2S,3R,5R)-3-((5-(benzo[d]thiazol-2-yl)-2-((2-methoxypyridin-4-yl)amino)pyridin-4-yl)amino)-5-(hydroxymethyl)cyclopentane-1,2-diol]
13 nM	Cc1cc(Nc2cc(N[C@@H]3C[C@H](CO)[C@@H](O)[C@H]3O)c(-c3nc4ccccc4s3)cn2)cc(C)n1 [Example 154, (1R,2S,3R,5R)-3-((5-(benzo[d]thiazol-2-yl)-2-((2,6-dimethylpyridin-4-yl)amino)pyridin-4-yl)amino)-5-(hydroxymethyl)cyclopentane-1,2-diol]
137 nM	COc1cccc(Nc2ncc(-c3nc4ccccc4s3)c(N[C@@H]3C[C@H](CO)[C@@H](O)[C@H]3O)n2)c1 [Example 4, (1R,2S,3R,5R)-3-((5-(benzo[d]thiazol-2-yl)-2-((3-methoxyphenyl)amino)pyrimidin-4-yl)amino)-5-(hydroxymethyl)cyclopentane-1,2-diol]
6.5 nM	OC[C@H]1C[C@@H](Nc2nc(Nc3ccc4[nH]ncc4c3)ncc2-c2nc3ccccc3s2)[C@H](O)[C@@H]1O [Example 50, (1R,2S,3R,5R)-3-((2-((1H-indazol-5-yl)amino)-5-(benzo[d]thiazol-2-yl)pyrimidin-4-yl)amino)-5-(hydroxymethyl)cyclopentane-1,2-diol]
6 nM	OC[C@H]1C[C@@H](Nc2nc(Nc3cncnc3)ncc2-c2nc3ccncc3s2)[C@H](O)[C@@H]1O [Example 74, 6-(((1R,2S,3R,4R)-2,3-dihydroxy-4-(hydroxymethyl)cyclopentyl)amino)-2-(pyrimidin-5-ylamino)-5-(thiazolo[5,4-c]pyridin-2-yl)pyrimidine]
3 nM	CN1CCN(c2ccc(Nc3ncc(-c4nc5ccccc5s4)c(N[C@@H]4C[C@H](CO)[C@@H](O)[C@H]4O)n3)cc2)CC1 [Example 44, (1R,2S,3R,5R)-3-((5-(benzo[d]thiazol-2-yl)-2-((4-(4-methylpiperazin-1-yl)phenyl)amino)pyrimidin-4-yl)amino)-5-(hydroxymethyl)cyclopentane-1,2-diol]
37 nM	Cc1cc(Nc2cc(N[C@H]3C[C@@H](C(C)(C)O)[C@H](O)[C@@H]3O)c(-c3nc(C)cs3)cn2)cc(C)n1 (stereo in doubt) [Example 162, (1S,2R,3S,5R)-3-((2-((2,6-dimethylpyridin-4-yl)amino)-5-(4-methylthiazol-2-yl)pyridin-4-yl)amino)-5-(2-hydroxypropan-2-yl)cyclopentane-1,2-diol]
483 nM	OC[C@H]1C[C@@H](Nc2nc(NC3CCC3)ncc2-c2ccc3ccccc3n2)[C@H](O)[C@@H]1O [Example 56, 2-(cyclobutylamino)-6-(((1R,2S,3R,4R)-2,3-dihydroxy-4-(hydroxymethyl)cyclopentyl)amino)-5-(quinolin-2-yl)pyrimidine]
4 nM	CN(C)c1ccc(Nc2ncc(-c3nc4cnccc4s3)c(N[C@@H]3C[C@H](CO)[C@@H](O)[C@H]3O)n2)cc1 [Example 66, (1R,2S,3R,5R)-3-((2-((4-(dimethylamino)phenyl)amino)-5-(thiazolo[4,5-c]pyridin-2-yl)pyrimidin-4-yl)amino)-5-(hydroxymethyl)cyclopentane-1,2-diol]
386 nM	CC(C)(O)C1C[C@@H](Nc2nc(Nc3cccc(C(F)(F)F)c3)ncc2-c2nc3ccccc3s2)[C@H](O)[C@@H]1O (stereo in doubt) [Example 121, 5-(benzo[d]thiazol-2-yl)-6-(((1R,2S,3R,4R)-2,3-dihydroxy-4-(2-hydroxypropan-2-yl)cyclopentyl)amino)-2-((3-(trifluoromethyl)phenyl)amino)pyrimidine]
6090 nM	Cc1nc(NCCCN2CCN(C)CC2)nc(N[C@@H]2C[C@H](CO)[C@@H](O)[C@H]2O)c1-c1nc2ccccc2s1 [Example 89, (1R,2S,3R,5R)-3-((5-(benzo[d]thiazol-2-yl)-6-methyl-2-((3-(4-methylpiperazin-1-yl)propyl)amino)pyrimidin-4-yl)amino)-5-(hydroxymethyl)cyclopentane-1,2-diol]
19 nM	CC(C)Oc1cc(Nc2ncc(-c3nc4ccccc4s3)c(N[C@@H]3CC(C(C)(C)O)[C@@H](O)[C@H]3O)n2)ccn1 (stereo in doubt) [Example 116, 5-(benzo[d]thiazol-2-yl)-6-(((1R,2S,3R,4R)-2,3-dihydroxy-4-(2-hydroxypropan-2-yl)cyclopentyl)amino)-2-((2-isopropoxypyridin-4-yl)amino)pyrimidine]
113 nM	Nc1cc(N[C@@H]2C[C@H](CO)[C@@H](O)[C@H]2O)c(-c2nc3ccccc3s2)cn1 [Example 152, (1R,2S,3R,5R)-3-((2-amino-5-(benzo[d]thiazol-2-yl)pyridin-4-yl)amino)-5-(hydroxymethyl)cyclopentane-1,2-diol]
560 nM	OC[C@H]1C[C@@H](Nc2nc(NC3CCC3)ncc2-c2nc3cnccc3s2)[C@H](O)[C@@H]1O [Example 76, 2-(cyclobutylamino)-6-(((1R,2S,3R,4R)-2,3-dihydroxy-4-(hydroxymethyl)cyclopentyl)amino)-5-(thiazolo[4,5-c]pyridin-2-yl)pyrimidine]
44 nM	OC[C@H]1C[C@@H](Nc2nc(Nc3ccncc3F)ncc2-c2nc3ccccc3s2)[C@H](O)[C@@H]1O [Example 30, (1R,2S,3R,5R)-3-((5-(benzo[d]thiazol-2-yl)-2-((3-fluoropyridin-4-yl)amino)pyrimidin-4-yl)amino)-5-(hydroxymethyl)cyclopentane-1,2-diol]
0.7 nM	COc1cc(Nc2ncc(-c3nc4cnccc4s3)c(N[C@@H]3CC(C(C)(C)O)[C@@H](O)[C@H]3O)n2)ccn1 (stereo in doubt) [Example 136, 6-(((1R,2S,3R,4R)-2,3-dihydroxy-4-(2-hydroxypropan-2-yl)cyclopentyl)amino)-2-((2-methoxypyridin-4-yl)amino)-5-(thiazolo[4,5-c]pyridin-2-yl)pyrimidine]
20 nM	OC[C@H]1C[C@@H](Nc2nc(Nc3ccc4[nH]ccc4c3)ncc2-c2nc3ccccc3s2)[C@H](O)[C@@H]1O [Example 23, (1R,2S,3R,5R)-3-((2-((1H-indol-5-yl)amino)-5-(benzo[d]thiazol-2-yl)pyrimidin-4-yl)amino)-5-(hydroxymethyl)cyclopentane-1,2-diol]
138 nM	Cc1cc(Nc2nc(C)c(-c3nc4ccccc4s3)c(N[C@@H]3C[C@H](CO)[C@@H](O)[C@H]3O)n2)ccn1 [Example 100, (1R,2S,3R,5R)-3-((5-(benzo[d]thiazol-2-yl)-6-methyl-2-((2-methylpyridin-4-yl)amino)pyrimidin-4-yl)amino)-5-(hydroxymethyl)cyclopentane-1,2-diol]
68 nM	CO[C@@H]1[C@H](O)[C@@H](CO)C[C@H]1Nc1nc(N)ncc1-c1nc2ccccc2s1 [Example 142, (1R,2S,3R,5R)-3-((2-amino-5-(benzo[d]thiazol-2-yl)pyrimidin-4-yl)amino)-5-(hydroxymethyl)-2-methoxycyclopentanol]
10 nM	OC[C@H]1C[C@@H](Nc2nc(Nc3cccnc3)ncc2-c2nc3ccccc3s2)[C@H](O)[C@@H]1O [Example 37, (1R,2S,3R,5R)-3-((5-(benzo[d]thiazol-2-yl)-2-(pyridin-3-ylamino)pyrimidin-4-yl)amino)-5-(hydroxymethyl)cyclopentane-1,2-diol]
